According to patent publication US20220323406A1, “METHODS AND COMPOSITIONS FOR DIFFERENTIATING STEM CELLS” (Massachusetts Institute of Technology, priority 2019, published 2022):

Experiments:
[1] = tested on: ENR+CD organoids (ISC to Paneth cell differentiation); assay: Primary screen: basal (non-stimulated) lysozyme secretion LYZ.NS, 2.5-D 384-well ENR+CD organoid differentiation; assay type: cell-based, mouse
From the text: (§1) High-throughput screening.

[2] = tested on: ENR+CD organoids (ISC to Paneth cell differentiation); assay: Primary screen: CCh-stimulated lysozyme secretion LYZ.S, 2.5-D 384-well ENR+CD organoid differentiation; assay type: cell-based, mouse; conditions: primary screen
From the text: as §1

ENR+CD organoids = assay: Primary screen: ATP (CellTiter-Glo 3D, CTG) cell number/viability, 2.5-D 384-well ENR+CD organoids;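 further: compounds given at plating and again on day 3 over a 6-day differentiation from ENR+CV stem-cell-enriched precursors, ATP measured on day 6, plate median as control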
[3] = primary screen, standard z score, dose 0.08 uM
[4] = primary screen, standard z score, dose 0.40 uM
[5] = primary screen, standard z score, dose 2.00 uM
[6] = primary screen, standard z score, dose 10.00 uM
[7] = primary screen, 1st dose row of the treatment (0.08 uM by row order; dose not reprinted)
[8] = primary screen, 2nd dose row of the treatment (0.40 uM by row order; dose not reprinted)
[9] = primary screen, 3rd dose row of the treatment (2.00 uM by row order; dose not reprinted)
[10] = primary screen, 4th dose row of the treatment (10.00 uM by row order; dose not reprinted)
[11] = 1st dose row of the treatment (0.08 uM by row order; dose not reprinted)
[12] = 2nd dose row of the treatment (0.40 uM by row order; dose not reprinted)
[13] = 3rd dose row of the treatment (2.00 uM by row order; dose not reprinted)
[14] = 4th dose row of the treatment (10.00 uM by row order; dose not reprinted)
[15] = primary screen, dose 0.08 uM, FC relative to plate median
[16] = primary screen, dose 0.08 uM, standard z score
[17] = primary screen, dose 0.40 uM, FC relative to plate median
[18] = primary screen, dose 0.40 uM, standard z score
[19] = primary screen, dose 2.00 uM, FC relative to plate median
[20] = primary screen, dose 2.00 uM, standard z score
[21] = primary screen, dose 10.00 uM, FC relative to plate median
[22] = primary screen, dose 10.00 uM, standard z score

Work on `C[C@H](N[C@@H](CCc1ccccc1)C(=O)O)C(=O)N1CCC[C@H]1C(=O)O.O.O` [Enalaprilat Dihydrate] yielded a Dose.FC.LYZ.NS ([1]; primary screen, dose 0.08 uM) of 0.003 log2 fold change, a Dose.FC.LYZ.NS ([1]; primary screen, dose 0.40 uM) of −0.003 log2 fold change and a Dose.FC.LYZ.NS ([1]; primary screen, dose 2.00 uM) of −0.022 log2 fold change. The Dose.FC.LYZ.NS ([1]; primary screen, dose 10.00 uM) was −0.157 log2 fold change, the Z.LYZ.NS [1, 3] was 0.027 and the Z.LYZ.NS [1, 4] was −0.030. It also gave a Z.LYZ.NS [1, 5] of −0.195, a Z.LYZ.NS [1, 6] of −1.364 and a Dose.FC.LYZ.S ([2]; dose 0.08 uM) of −0.001 log2 fold change. For the same compound, the Dose.FC.LYZ.S ([2]; dose 0.40 uM) was 0.111 log2 fold change, the Dose.FC.LYZ.S ([2]; dose 2.00 uM) was −0.095 log2 fold change and the Dose.FC.LYZ.S ([2]; dose 10.00 uM) was −0.281 log2 fold change. It also gave a Dose.FC.CTG (ENR+CD organoids; primary screen, dose 0.08 uM) of −0.190 log2 fold change, a Dose.FC.CTG (ENR+CD organoids; primary screen, dose 0.40 uM) of −0.124 log2 fold change and a Dose.FC.CTG (ENR+CD organoids; primary screen, dose 2.00 uM) of −0.331 log2 fold change. The Dose.FC.CTG (ENR+CD organoids; primary screen, dose 10.00 uM) was −0.979 log2 fold change, the Z.CTG (ENR+CD organoids; [3]) was −0.454 and the Z.CTG (ENR+CD organoids; [4]) was −0.296. It also gave a Z.CTG (ENR+CD organoids; [5]) of −0.791 and a Z.CTG (ENR+CD organoids; [6]) of −2.338.

`Cc1cc2c(C(C)C)c(O)c(O)c(C=O)c2c(O)c1-c1c(C)cc2c(C(C)C)c(O)c(O)c(C=O)c2c1O` [AT101] was tested, and the Dose.FC.LYZ.NS ([1]; primary screen, dose 0.08 uM) was −0.049 log2 fold change, the “Z.LYZ.NS (standard z score)” value ([1]; primary screen, dose 0.08 uM) was −0.426 and the Dose.FC.LYZ.NS ([1]; primary screen, dose 0.40 uM) was −0.068 log2 fold change. The “Z.LYZ.NS (standard z score)” value ([1]; primary screen, dose 0.40 uM) was −0.592, the Dose.FC.LYZ.NS ([1]; primary screen, dose 2.00 uM) was −0.036 log2 fold change and the “Z.LYZ.NS (standard z score)” value ([1]; primary screen, dose 2.00 uM) was −0.311. For the same compound, the Dose.FC.LYZ.NS ([1]; primary screen, dose 10.00 uM) was −0.052 log2 fold change, the “Z.LYZ.NS (standard z score)” value ([1]; primary screen, dose 10.00 uM) was −0.452 and the Dose.FC.LYZ.S ([2]; dose 0.08 uM) was 0.004 log2 fold change. For the same compound, the Dose.FC.LYZ.S ([2]; dose 0.40 uM) was −0.013 log2 fold change, the Dose.FC.LYZ.S ([2]; dose 2.00 uM) was −0.085 log2 fold change and the Dose.FC.LYZ.S ([2]; dose 10.00 uM) was −0.061 log2 fold change. It also gave a Dose.FC.CTG (ENR+CD organoids; primary screen, dose 0.08 uM) of −0.198 log2 fold change, a Dose.FC.CTG (ENR+CD organoids; primary screen, dose 0.40 uM) of 0.019 log2 fold change and a Dose.FC.CTG (ENR+CD organoids; primary screen, dose 2.00 uM) of −0.216 log2 fold change. It also gave a Dose.FC.CTG (ENR+CD organoids; primary screen, dose 10.00 uM) of −0.056 log2 fold change.

With `CC(C)N(CC[C@H](c1ccccc1)c1cc(CO)ccc1O)C(C)C` [5-hydroxymethyl Tolterodine (PNU 200577, 5-HMT, 5-HM)] the “SSMD.LYZ.NS_Rep (strictly standardized mean difference)” value [1, 7] was 0.915, the “SSMD.LYZ.NS_Rep (strictly standardized mean difference)” value [1, 8] was 0.760 and the “SSMD.LYZ.NS_Rep (strictly standardized mean difference)” value [1, 9] was 0.947. For the same compound, the “SSMD.LYZ.NS_Rep (strictly standardized mean difference)” value [1, 10] was 0.223, the Dose.FC.LYZ.NS ([1]; primary screen, dose 0.08 uM) was 0.184 log2 fold change and the “Z.LYZ.NS (standard z score)” value ([1]; primary screen, dose 0.08 uM) was 1.599. The Dose.FC.LYZ.NS ([1]; primary screen, dose 0.40 uM) was 0.076 log2 fold change, the “Z.LYZ.NS (standard z score)” value ([1]; primary screen, dose 0.40 uM) was 0.665 and the Dose.FC.LYZ.NS ([1]; primary screen, dose 2.00 uM) was 0.154 log2 fold change. The “Z.LYZ.NS (standard z score)” value ([1]; primary screen, dose 2.00 uM) was 1.344, the Dose.FC.LYZ.NS ([1]; primary screen, dose 10.00 uM) was 0.034 log2 fold change and the “Z.LYZ.NS (standard z score)” value ([1]; primary screen, dose 10.00 uM) was 0.293. The “SSMD.LYZ.S_Rep (strictly standardized mean difference)” value [2, 11] was 0.460, the “Z.LYZ.S (standard z score)” value [2, 11] was 0.417 and the “SSMD.LYZ.S_Rep (strictly standardized mean difference)” value [2, 12] was 0.266. The “Z.LYZ.S (standard z score)” value [2, 12] was 0.231, the “SSMD.LYZ.S_Rep (strictly standardized mean difference)” value [2, 13] was 0.174 and the “Z.LYZ.S (standard z score)” value [2, 13] was 0.152. The “SSMD.LYZ.S_Rep (strictly standardized mean difference)” value [2, 14] was −0.042, the “Z.LYZ.S (standard z score)” value [2, 14] was −0.044 and the Dose.FC.LYZ.S ([2]; dose 0.08 uM) was 0.065 log2 fold change. It also gave a Dose.FC.LYZ.S ([2]; dose 0.40 uM) of 0.036 log2 fold change, a Dose.FC.LYZ.S ([2]; dose 2.00 uM) of 0.023 log2 fold change and a Dose.FC.LYZ.S ([2]; dose 10.00 uM) of −0.007 log2 fold change. For the same compound, the “SSMD.CTG.Rep (strictly standardized mean difference)” value (ENR+CD organoids; [7]) was −0.118, the “SSMD.CTG.Rep (strictly standardized mean difference)” value (ENR+CD organoids; [8]) was 0.291 and the “SSMD.CTG.Rep (strictly standardized mean difference)” value (ENR+CD organoids; [9]) was 0.114. For the same compound, the “SSMD.CTG.Rep (strictly standardized mean difference)” value (ENR+CD organoids; [10]) was 0.061, the Dose.FC.CTG (ENR+CD organoids; primary screen, dose 0.08 uM) was −0.062 log2 fold change and the “Z.CTG (standard z score)” value (ENR+CD organoids; primary screen, dose 0.08 uM) was −0.149. For the same compound, the Dose.FC.CTG (ENR+CD organoids; primary screen, dose 0.40 uM) was 0.087 log2 fold change, the “Z.CTG (standard z score)” value (ENR+CD organoids; primary screen, dose 0.40 uM) was 0.207 and the Dose.FC.CTG (ENR+CD organoids; primary screen, dose 2.00 uM) was 0.034 log2 fold change. The “Z.CTG (standard z score)” value (ENR+CD organoids; primary screen, dose 2.00 uM) was 0.082, the Dose.FC.CTG (ENR+CD organoids; primary screen, dose 10.00 uM) was 0.017 log2 fold change and the “Z.CTG (standard z score)” value (ENR+CD organoids; primary screen, dose 10.00 uM) was 0.040.

`O=C(Nc1ccccc1Br)N[C@@H]1CCN(c2ccc(C(F)(F)F)cn2)C1` [SB705498] gave a Dose.FC.LYZ.NS [1, 15] of 0.074 log2 fold change, a Z.LYZ.NS [1, 16] of 0.642 and a Dose.FC.LYZ.NS [1, 17] of −0.050 log2 fold change. For the same compound, the Z.LYZ.NS [1, 18] was −0.433, the Dose.FC.LYZ.NS [1, 19] was −0.001 log2 fold change and the Z.LYZ.NS [1, 20] was −0.008. It also gave a Dose.FC.LYZ.NS [1, 21] of −0.018 log2 fold change, a Z.LYZ.NS [1, 22] of −0.154 and a Dose.FC.LYZ.S ([2]; dose 0.08 uM, FC relative to plate median) of 0.094 log2 fold change. For the same compound, the Dose.FC.LYZ.S ([2]; dose 0.40 uM, FC relative to plate median) was 0.023 log2 fold change, the Dose.FC.LYZ.S ([2]; dose 2.00 uM, FC relative to plate median) was −0.030 log2 fold change and the Dose.FC.LYZ.S ([2]; dose 10.00 uM, FC relative to plate median) was −0.023 log2 fold change. For the same compound, the Dose.FC.CTG (ENR+CD organoids; [15]) was 0.133 log2 fold change, the Z.CTG (ENR+CD organoids; [16]) was 0.318 and the Dose.FC.CTG (ENR+CD organoids; [17]) was −0.043 log2 fold change. It also gave a Z.CTG (ENR+CD organoids; [18]) of −0.102, a Dose.FC.CTG (ENR+CD organoids; [19]) of −0.004 log2 fold change and a Z.CTG (ENR+CD organoids; [20]) of −0.009. It also gave a Dose.FC.CTG (ENR+CD organoids; [21]) of −0.037 log2 fold change and a Z.CTG (ENR+CD organoids; [22]) of −0.089.
